Experimental findings from ChEMBL document CHEMBL1150183, “Spermine alkaloids from Schweinfurthia papilionacea” (J Nat Prod, 1990) are described below.

Each structure is given as a SMILES string.

What all share (format): toxicity, organism-based
The test system of data set [1] is Salmonella typhimurium. Briefly: Mutagenic activity in Salmonella Typhimurium TA100 assessed as number of spontaneous revertants at 500 ug/plate by Ames test in presence of rat liver microsomal S9 fraction. Particulars: salmonella enterica subsp. enterica serovar typhimurium, microsomes.
Data set [2] deals with Salmonella typhimurium. Kind of data set: Mutagenic activity in Salmonella Typhimurium TA98 assessed as number of spontaneous revertants at 500 ug/plate by Ames test in absence of rat liver microsomal S9 fraction. To be noted: salmonella enterica subsp. enterica serovar typhimurium.
The subject of data set [3] is Salmonella typhimurium. Briefly: Mutagenic activity in Salmonella Typhimurium TA98 assessed as number of spontaneous revertants at 500 ug/plate by Ames test in presence of rat liver microsomal S9 fraction. To be noted: salmonella enterica subsp. enterica serovar typhimurium, microsomes.
For data set [4], the system named is Salmonella typhimurium. Kind of data set: Mutagenic activity in Salmonella Typhimurium TA100 assessed as number of spontaneous revertants at 500 ug/plate by Ames test in absence of rat liver microsomal S9 fraction. To be noted: salmonella enterica subsp. enterica serovar typhimurium.
Data set [5] deals with Salmonella typhimurium. Briefly: Mutagenic activity in Salmonella Typhimurium TA100 assessed as increase in spontaneous revertants by Ames test relative to control spontaneous reversion. To be noted: salmonella enterica subsp. enterica serovar typhimurium.
Data set [6] relates to Salmonella typhimurium. Kind of data set: Mutagenic activity in Salmonella Typhimurium TA98 assessed as increase in spontaneous revertants by Ames test relative to control spontaneous reversion. Particulars: salmonella enterica subsp. enterica serovar typhimurium.
The subject of data set [7] is Salmonella typhimurium. Kind of data set: Mutagenic activity in Salmonella Typhimurium TA97a assessed as number of spontaneous revertants at 500 ug/plate by Ames test in absence of rat liver microsomal S9 fraction. To be noted: salmonella enterica subsp. enterica serovar typhimurium.

As to `O=C1C[C@H]2NCCCNCCCCN(CCCN1)C(=O)[C@@H]1c3cc2ccc3O[C@H]1c1ccc(O)cc1`, the Activity in the data set with Salmonella typhimurium [1] is given as 461; with Salmonella typhimurium [2], 81; with Salmonella typhimurium [3] it was 778; in the data set with Salmonella typhimurium [4], 143; with Salmonella typhimurium [7] it was 0. The results for the “fold change (FC)” value with Salmonella typhimurium [5] and in the data set on Salmonella typhimurium [6] were 4 and 22, respectively.
